{
  "source": "patent US11147765B1",
  "about": "“Instantly dissolving buccal films” (King Abdulaziz University, priority 2020, dated 2021)",
  "key": {"[1]": {"test": "Dissolution screening of DPX and its physical mixtures with organic acids and cyclodextrins", "assay_type": "physicochemical", "conditions": "phosphate buffer pH 6.8, 37±0.5° C., in absence of excipients", "experimental": "Various organic acids (CA, MA, and TA) and cyclodextrins β3-CD and HP-β-CD) were assessed as acidifiers and hydrophilic solubilizers to enhance the dissolution of DPX. Equivalent amounts of DPX and each of the studied excipients were thoroughly mixed for 5 min. The dissolution behavior of specified quantity of each mixture equivalent to 30 mg DPX was done in 900 mL phosphate buffer (pH 6.8) using USP Dissolution Tester, apparatus II (DT 720, Erweka, Germany) operating at 50 rpm at 37±0.5° C.. Aliquot samples were withdrawn after 2 and 15 minutes and replaced with equal volume of fresh buffer. Samples were filtered through a 0.22 μm Millipore filter, and the concentration of DPX was quantified spectrophotometrically at 292 nm (UV-2600 PC; Shimadzu, Kyoto, Japan). The dissolution study was done in triplicate."}, "[2]": {"conditions": "reported [26]; cited from earlier work"}},
  "note": "Where a name gives a salt, the structure may show the parent alone.",
  "data": [
    {"smiles": "CN(C)[C@@H](CCOc1cccc2ccccc12)c1ccccc1", "note": "[DPX, Dapoxetine hydrochloride]", "values": [
      {"measurement": "percent dissolved after 2 minutes", "setting": "[1]", "value": "2.13±0.09", "unit": "%"},
      {"measurement": "percent dissolved after 15 minutes", "setting": "[1]", "value": "2.89±0.06", "unit": "%"},
      {"measurement": "solubility in phosphate buffer pH 6.8", "setting": "[2]", "value": 0.26, "unit": "μg·mL^−1"}
    ]}
  ]
}
